According to PMC12147205, “Soybean Lectin Cross-Links Membranes by Binding Sulfatide in a Curvature-Dependent Manner” (Journal of Agricultural and Food Chemistry, 2025):
Values joined by “and” are separate entries in the source; they are usually repeats but may differ in a detail not shown here. Equal entries are not always repeated. “Also recorded” adds a separate entry of the source.

What was measured:
[1] = biological target: T1, soybean lectin (Glycine max, UniProt P05046); assay: Isothermal titration calorimetry of GalNAc and analogs binding to soybean lectin; details: for KD / Kd: 50 mM HEPES, 20 mM CaCl2 pH 7, one set of sites model, N fixed to 4, NB = no binding detected (KD over 1–2 mM)
T1 construct: from tissue; host or cells: soybean meal (Glycine max seed meal)
Experimental: Isothermal titration calorimetry (ITC) measurements were performed in a buffer containing 50 mM HEPES and 20 mM CaCl2 (pH 7). […] Each experiment was carried out in duplicate.

[2] = biological target: T1, soybean lectin; assay: Lectin-mediated cross-linking of sulfatide-containing GUVs, confocal microscopy; details: 7.5 μM lectin; GalNAc at 200 times the lectin concentration
Experimental: Giant unilamellar vesicles (GUVs) were generated as described by Horger et al. Briefly, an agarose solution was prepared by dissolving 4 g of agarose in 100 mL of Milli-Q water. The solution was poured onto one side of a glass slide and allowed to dry. The glass slide was then placed on a hot plate set to 38 °C. A 30 μL stock solution of lipids (3.75 mg/mL) was prepared in a chloroform–methanol mixture, containing 10% sulfatides, 30% DOPC, 30% cholesterol, 28% DOPE, and 2% DOPE-F (GUV-containing sulfatide) or 33.3% DOPC, 33.3% cholesterol, 31.3% DOPE, and 2% DOPE-F (GUV-sulfatide free). This lipid mixture was spread over the agarose layer on the heated glass slide using another glass slide. The slide remained on the hot plate for a few minutes until the solvent evaporated. To remove residual solvent, the glass slide containing the agarose and lipid film was placed in a vacuum chamber for 20 min. GUVs were then generated by placing the prepared glass slide in a Petri dish and covering it with phosphate buffer saline. The GUV-lectin suspension was prepared with a final lectin concentration of 7.5 μM. […] Confocal microscopy was performed using a Nikon AXR point-scanning confocal system built around an inverted Ti2 Eclipse microscope. […] In some cases, a gamma adjustment of 0.9 was applied to enhance fluorescence localization differences within individual vesicles. […]

[3] = biological target: T1, soybean lectin; assay: SPR of lectin binding to sulfatide liposomes immobilized on L1 sensor chip; details: 0.4 μm liposomes, 10% sulfatide/90% DOPC; two-state reaction model; absence of GalNAc; read-out: KD (apparent), lectin to sulfatide liposomes
Experimental: SPR data were collected using a BIAcore X100 instrument equipped with an L1 sensor chip (Cytiva) coated with 0.4 μm liposomes at room temperature. Liposomes contained 10% sulfatide and 90% DOPC, whereas liposomes without sulfatide were composed of 100% DOPC. All experiments were performed using a buffer consisting of 50 mM HEPES and 140 mM NaCl (pH 7.4). Pretreatment of the sensor chip was performed with 40 mM octyl β-D-glucopyranoside. Liposomes were immobilized onto the L1 sensor chip at a flow rate of 30 μL/min, achieving a typical loading of ∼5500 response units per sensor chip channel. Lectin was used as the analyte across the specified concentration range. […] Data were best fitted using a two-state reaction model, and the apparent K D values were estimated using BIAevaluation software, version 2.0 (Cytiva).

[4] = biological target: porcine trypsin (Sus scrofa, UniProt P00761); assay: Binding of soybean meal trypsin inhibitors to porcine trypsin (Table S2)
[5] = ITC competition, lectin preincubated with sulfatide liposomes (10% sulfatide/90% DOPC)
[6] = ITC competition, lectin preincubated with sulfatide-free liposomes (100% DOPC)
[7] = TI from soybean meal line 17Ti-0204
[8] = TI from soybean meal line 17Ti-0242
[9] = TI from soybean meal line 17Ti-0332
[10] = TI from soybean meal line 17Ti-0534
[11] = TI from soybean meal line Glenn

T1 sequence (P05046 33-285): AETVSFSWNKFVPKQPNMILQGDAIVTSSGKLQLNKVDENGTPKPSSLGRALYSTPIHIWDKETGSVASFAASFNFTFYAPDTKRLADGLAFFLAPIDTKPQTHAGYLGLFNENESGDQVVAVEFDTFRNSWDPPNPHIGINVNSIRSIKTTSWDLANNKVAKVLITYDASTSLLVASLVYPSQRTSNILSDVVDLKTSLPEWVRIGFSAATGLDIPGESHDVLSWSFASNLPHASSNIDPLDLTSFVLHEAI
porcine trypsin, sequence (P00761 9-231): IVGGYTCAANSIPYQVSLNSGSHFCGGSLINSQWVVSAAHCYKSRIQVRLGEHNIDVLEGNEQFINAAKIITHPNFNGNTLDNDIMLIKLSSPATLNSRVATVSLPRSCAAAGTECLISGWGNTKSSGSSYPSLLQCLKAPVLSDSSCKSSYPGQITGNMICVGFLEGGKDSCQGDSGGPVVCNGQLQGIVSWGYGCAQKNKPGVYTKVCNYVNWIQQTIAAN

Molecule: CC(=O)N[C@H]1[C@H]([C@H](O)[C@H](O)CO)O[C@@](OC[C@H]2O[C@@H](O[C@H]3[C@H](O)[C@@H](O)[C@H](O)O[C@@H]3CO)[C@H](O)[C@@H](O)[C@H]2O)(C(=O)O)C[C@@H]1O [6-SL, 6′-Sialyl lactose]
- KD ([1]; ITC, 25 °C): no detectable binding
- Kd ([1]; ITC, 25 °C, read-out: KD): > 1000 µM

Molecule: O=[N+]([O-])c1ccc(O[C@H]2O[C@H](CO)[C@@H](O)[C@H](O)[C@@H]2O)c(Cl)c1 [CNMP, 2-chloro-4-nitrophenyl-α-D-mannopyranoside]
- KD ([1]; ITC, 25 °C): no detectable binding
- Kd ([1]; ITC, 25 °C, read-out: KD): > 1000 µM

Molecule: CC(=O)N[C@@H]1[C@@H](O)[C@@H](O)[C@@H](CO)O[C@H]1O [GalNAc, N-acetyl-D-galactosamine]
- ΔG [1, 5]: –5.6 ± 0 kcal/mol
- ΔH [1, 5]: –9.9 ± 0.2 kcal/mol
- –TΔS [1, 5]: 4.3 ± 0.2 kcal/mol
- ΔG [1, 6]: –5.6 ± 0 kcal/mol
- ΔH [1, 6]: –9.9 ± 0.2 kcal/mol
- –TΔS [1, 6]: 4.3 ± 0.2 kcal/mol
- ΔG ([1]; ITC, 25 °C, pH 7): –5.8 ± 0 kcal/mol
- –TΔS ([1]; ITC, 25 °C, pH 7): 4.5 kcal/mol and 4.5 ± 0.1 kcal/mol
- effect on soybean lectin-mediated cross-linking of sulfatide-containing GUVs [2]: inhibited; also recorded: reduced

Molecule: CO[C@H]1O[C@H](CO)[C@H](O)[C@H](O)[C@H]1NC(C)=O [MGalNAc, Methyl-N-acetyl-2-deoxy-α-D-galactosamine]
- Kd ([1]; ITC, 25 °C, read-out: KD): 73 µM and 73.1 µM
- ΔG ([1]; ITC, 25 °C, pH 7): –5.7 ± 0 kcal/mol
- ΔH ([1]; ITC, 25 °C, pH 7): –10.7 ± 0.1 kcal/mol
- –TΔS ([1]; ITC, 25 °C, pH 7): 5.0 ± 0.1 kcal/mol

Molecule: O=[N+]([O-])c1ccccc1OC1OC(CO)C(O)C(O)C1O [NPGP, 2-Nitrophenyl-β-D-galactopyranoside]
- weaker affinity relative to GalNAc ([1]; ITC): ~10 fold
- ΔG ([1]; ITC, 25 °C, pH 7): –4.3 ± 0 kcal/mol
- ΔH ([1]; ITC, 25 °C, pH 7): –9.8 ± 0.4 kcal/mol
- –TΔS ([1]; ITC, 25 °C, pH 7): 5.5 ± 0.3 kcal/mol
- Kd ([1]; KD, ITC, 25 °C): 789.5 ± 0.7 µM

Molecule: O=[N+]([O-])c1ccc(O[C@H]2O[C@H](CO)[C@@H](O)[C@H](O)[C@@H]2O)cc1 [NPMP, 4-nitrophenyl-α-D-mannopyranoside]
- KD ([1]; ITC, 25 °C): no detectable binding
- Kd ([1]; ITC, 25 °C, read-out: KD): > 1000 µM

Molecule: CCCCCCCCO[C@H]1O[C@H](CO)[C@@H](O)[C@H](O)[C@@H]1O [OMP, Octyl-α-D-mannopyranoside]
- KD ([1]; ITC, 25 °C): no detectable binding
- Kd ([1]; ITC, 25 °C, read-out: KD): > 1000 µM

Molecule: sulfatide
- Kd [3]: 264 ± 62 nM

B1: BBTI: Birk and Bowman trypsin inhibitor isolated from soybean meal (protein)
chain: DDESSKPCCDQCACTKSNPPQCRCSDMRLNSCHSACKSCICALSYPAQCFCVDITDFCYEPCKPSEDDKEN
modifications: Native protein purified from soybean meal, probably a mixture of Bowman-Birk isoforms
- Kd [4, 7]: 100 nM
- Kd [4, 8]: 100 ± 100 nM
- Kd [4, 9]: 200 nM
- Kd [4, 10]: 100 nM
- Kd [4, 11]: 100 nM

B2: KTI: Kunitz trypsin inhibitor isolated from soybean meal (protein)
chain: DFVLDNEGNPLENGGTYYILSDITAFGGIRAAPTGNERCPLTVVQSRNELDKGIGTIISSPYRIRFIAEGHPLSLKFDSFAVIMLCVGIPTEWSVVEDLPEGPAVKIGENKDAMDGWFRLERVSDDEFNNYKLVFCPQQAEDDKCGDIGISIDHDDGTRRLVVSKNKPLVVQFQKLDKESL
modifications: Native protein purified from soybean meal
- Kd [4, 7]: 9000 ± 2000 nM
- Kd [4, 8]: 2400 ± 300 nM
- Kd [4, 9]: 1200 ± 100 nM
- Kd [4, 10]: 2400 ± 100 nM
- Kd [4, 11]: 1100 ± 400 nM
